The target of data set [1] is T1, N-methyl transferase (Camellia sinensis, UniProt Q9FZN8).
T1 construct: made in house; host or cells: Escherichia coli BL21 (DE3), vector pET23d
T1 sequence (Q9FZN8 14-369 limits assumed): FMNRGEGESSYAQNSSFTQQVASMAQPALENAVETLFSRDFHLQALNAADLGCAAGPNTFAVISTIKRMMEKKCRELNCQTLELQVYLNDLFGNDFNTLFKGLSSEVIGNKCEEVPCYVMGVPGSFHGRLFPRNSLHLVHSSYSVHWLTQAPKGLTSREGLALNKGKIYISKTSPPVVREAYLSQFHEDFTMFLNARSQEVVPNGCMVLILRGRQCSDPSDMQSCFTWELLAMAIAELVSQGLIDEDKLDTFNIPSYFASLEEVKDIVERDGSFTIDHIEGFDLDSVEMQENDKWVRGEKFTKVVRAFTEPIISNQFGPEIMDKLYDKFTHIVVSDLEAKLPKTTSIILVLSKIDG
The experiment in a line: N-methyl transferase measurement with enzyme solution from Escherichia coli expressing the gene (14C-caffeine extraction). In kind it is biochemical. As to conditions: for production of methylated product from the added substrate: substrate added instead of paraxanthine, same reaction solution. As for the experimental part:
Separately, a fragment obtained by treating the isolated N-methyl transferase gene DNA fragment with NcoI and EcoRI was inserted into a pET23d vector. Then, the above PCR product was inserted into the NcoI site of this pET23d vector to construct an N-methyl transferase expression plasmid. This plasmid was transformed to Escherichia coli BL21 (DE3). After the obtained Escherichia coli was cultured at 37° C. for 2 hours, IPTG was added thereto so as to be 0.3 mM in final concentration, and 3-hour culture was further carried out at 30° C. After culturing had been completed, cells were collected and the cells from 3 ml culture solution were subjected to supersonic treatment for 1 minute with interval in 0.2 ml 10 mM Tris-hydrochloric acid buffer solution (pH 7.5), 0.1 M NaCl, 1 mM EDTA-Na2. Then, centrifugation was carried out at 14,000 rpm for 10 minutes, and the obtained supernatant was employed as an enzyme solution.
The reaction solution for N-methyl transferase measurement was prepared as follows. […] Reaction was carried out at 27° C. for 10 minutes, the obtained ^14C-caffeine was extracted by adding 1 ml chloroform thereto and the radiation activity of a chloroform layer was measured. As a control, xanthosine was added to the reaction solution instead of paraxanthine or paraxanthine was removed.

Data set [2] deals with T2, N-methyl transferase (Camellia sinensis, UniProt Q9FZN8).
T2 sequence (Q9FZN8 1-369): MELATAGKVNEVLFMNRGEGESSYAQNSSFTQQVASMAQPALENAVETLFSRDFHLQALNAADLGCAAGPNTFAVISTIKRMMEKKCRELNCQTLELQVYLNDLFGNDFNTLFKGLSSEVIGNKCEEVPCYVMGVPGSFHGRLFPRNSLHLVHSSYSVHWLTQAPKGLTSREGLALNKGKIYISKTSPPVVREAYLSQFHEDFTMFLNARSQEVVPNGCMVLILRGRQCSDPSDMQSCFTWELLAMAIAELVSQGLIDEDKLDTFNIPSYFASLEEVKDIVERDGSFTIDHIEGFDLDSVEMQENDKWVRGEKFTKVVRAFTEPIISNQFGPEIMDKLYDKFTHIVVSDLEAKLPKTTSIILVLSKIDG
The class given is biochemical. As for the experimental part: Inhibitor: SAH (S-adenosyl homocysteine)
The reaction solution for N-methyl transferase measurement was prepared as follows. […] Reaction was carried out at 27° C. for 10 minutes, the obtained ^14C-caffeine was extracted by adding 1 ml chloroform thereto and the radiation activity of a chloroform layer was measured.

Substrate in data set [3]: Cn1c(=O)[nH]c2ncn(C)c2c1=O
Briefly: purified protein, by the assay type. As to conditions: other: substrate of the N-methyl transferase; pH 8.5; 27.0 °C.

Consider `Cn1cnc2[nH]c(=O)[nH]c(=O)c21` [7-methyl xanthine], for which the “production of methylated product from the added substrate” value (from here on “production of methylated product”) on N-methyl transferase [1] was “production of theobromine was observed”.

`Nc1ncnc2c1ncn2[C@@H]1O[C@H](CSCC[C@H](N)C(=O)O)[C@@H](O)[C@H]1O` [SAH, S-adenosyl homocysteine]: at N-methyl transferase [2] (inhibitor of the N-methyl transferase), the Inhibitor entry is listed as “Inhibitor”.

What is called Km is the substrate concentration at which the rate is half of its maximum. On to `C[S+](CC[C@H](N)C(=O)[O-])C[C@H]1O[C@@H](n2cnc3c(N)ncnc32)[C@H](O)[C@@H]1O` (some centres unmarked) [SAM, S-adenosyl methionine], for which, on N-methyl transferase [2] (substrate of the N-methyl transferase), the Km was determined as 21 µM.

`Cn1c(=O)[nH]c2ncn(C)c2c1=O` [paraxanthine] gave a caffeine produced on N-methyl transferase [1] (0.2 mM substrate, 4 μM S-adenosyl methionine, 10 μl enzyme solution, pH 8.5, 27° C., 10 minutes) of 1.56 pmol.

In the case of `Cn1cnc2c1c(=O)[nH]c(=O)n2C` [theobromine], the “production of methylated product” value at N-methyl transferase [1] is recorded as “production of caffeine was observed”.

Consider `O=c1[nH]c(=O)c2ncn([C@@H]3O[C@H](CO)[C@@H](O)[C@H]3O)c2[nH]1` [xanthosine], for which the “production of methylated product” value at N-methyl transferase [1] is reported as “caffeine was produced only when paraxanthine was added”.

B1: N-methyl transferase (Camellia sinensis) (protein)
chain: T2 sequence (Q9FZN8 1-369)
On to B1, for which the Km in data set [3] worked out at 24 µM.

B2: N-methyl transferase: polypeptide of SEQ ID NO: 1 with 7-methyl xanthine N3, theobromine N1 and paraxanthine N3 methyl transferase activities (protein)
chain: T1 sequence (Q9FZN8 14-369 limits assumed)
As for B2, the “Optimum pH” value with N-methyl transferase [2] turned out to be 8.5.

The values are drawn from US6930227B1 (Mitsui Chemicals, Inc., priority 1999, dated 2005).
